Laboratory results taken from PMC7954794, “Protein context shapes the specificity of SH3 domain-mediated interactions in vivo” (Nature Communications, 2021).

Tested on: Abp1 PPIs
Test: DHFR-PCA of Abp1 SH3-swapped baits (Fig. 2B-D, S2C, S2F);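 on Protein-protein interaction distance between Abp1 SH3-swapped baits, to ABP1: Euclidean distance between DHFR-PCA score profiles of the baits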;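 on Protein-protein interaction distance between Abp1 SH3-swapped baits, to BEM1-2: Euclidean distance between DHFR-PCA score profiles of the baits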;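 on Protein-protein interaction distance between Abp1 SH3-swapped baits, to BOI1: Euclidean distance between DHFR-PCA score profiles of the baits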;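 on Protein-protein interaction distance between Abp1 SH3-swapped baits, to BZZ1-1: Euclidean distance between DHFR-PCA score profiles of the baits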
Type: cell-based, Saccharomyces cerevisiae
Conditions: for Protein-protein interaction distance between Abp1 SH3-swapped baits, to ABP1: Abp1 bait with swapped SH3, distance to bait with ABP1 SH3; for Protein-protein interaction distance between Abp1 SH3-swapped baits, to ABP1 / Protein-protein interaction distance between Abp1 SH3-swapped baits, to BBC1 / Protein-protein interaction distance between Abp1 SH3-swapped baits, to BEM1-1 / Protein-protein interaction distance between Abp1 SH3-swapped baits, to BEM1-2 / Protein-protein interaction distance between Abp1 SH3-swapped baits, to BOI1 / Protein-protein interaction distance between Abp1 SH3-swapped baits, to BOI2 / Protein-protein interaction distance between Abp1 SH3-swapped baits, to BUD14 / Protein-protein interaction distance between Abp1 SH3-swapped baits, to BZZ1-1 / Protein-protein interaction distance between Abp1 SH3-swapped baits, to BZZ1-2 / Protein-protein interaction distance between Abp1 SH3-swapped baits, to CDC25 / Protein-protein interaction distance between Abp1 SH3-swapped baits, to CTTN / Protein-protein interaction distance between Abp1 SH3-swapped baits, to CYK3 / Protein-protein interaction distance between Abp1 SH3-swapped baits, to DBNL / Protein-protein interaction distance between Abp1 SH3-swapped baits, to FUS1 / Protein-protein interaction distance between Abp1 SH3-swapped baits, to HCLS1 / Protein-protein interaction distance between Abp1 SH3-swapped baits, to HOF1 / Protein-protein interaction distance between Abp1 SH3-swapped baits, to HSE1 / Protein-protein interaction distance between Abp1 SH3-swapped baits, to LSB1 / Protein-protein interaction distance between Abp1 SH3-swapped baits, to LSB3 / Protein-protein interaction distance between Abp1 SH3-swapped baits, to MYO3 / Protein-protein interaction distance between Abp1 SH3-swapped baits, to MYO5 / Protein-protein interaction distance between Abp1 SH3-swapped baits, to NBP2 / Protein-protein interaction distance between Abp1 SH3-swapped baits, to PEX13 / Protein-protein interaction distance between Abp1 SH3-swapped baits, to PIN3 / Protein-protein interaction distance between Abp1 SH3-swapped baits, to RVS167 / Protein-protein interaction distance between Abp1 SH3-swapped baits, to SDC25 / Protein-protein interaction distance between Abp1 SH3-swapped baits, to SHO1 / Protein-protein interaction distance between Abp1 SH3-swapped baits, to SLA1-1 / Protein-protein interaction distance between Abp1 SH3-swapped baits, to SLA1-2 / Protein-protein interaction distance between Abp1 SH3-swapped baits, to SLA1-3 / Protein-protein interaction distance between Abp1 SH3-swapped baits, to YSC84: sheet Fig2C; for Protein-protein interaction distance between Abp1 SH3-swapped baits, to BBC1: distance to Abp1 bait with BBC1 SH3; for Protein-protein interaction distance between Abp1 SH3-swapped baits, to BEM1-1: distance to Abp1 bait with BEM1-1 SH3; for Protein-protein interaction distance between Abp1 SH3-swapped baits, to BEM1-2: distance to Abp1 bait with BEM1-2 SH3; for Protein-protein interaction distance between Abp1 SH3-swapped baits, to BOI1: distance to Abp1 bait with BOI1 SH3; for Protein-protein interaction distance between Abp1 SH3-swapped baits, to BOI2: distance to Abp1 bait with BOI2 SH3; for Protein-protein interaction distance between Abp1 SH3-swapped baits, to BUD14: distance to Abp1 bait with BUD14 SH3; for Protein-protein interaction distance between Abp1 SH3-swapped baits, to BZZ1-1: distance to Abp1 bait with BZZ1-1 SH3; for Protein-protein interaction distance between Abp1 SH3-swapped baits, to BZZ1-2: distance to Abp1 bait with BZZ1-2 SH3; for Protein-protein interaction distance between Abp1 SH3-swapped baits, to CDC25: distance to Abp1 bait with CDC25 SH3; for Protein-protein interaction distance between Abp1 SH3-swapped baits, to CTTN: distance to Abp1 bait with CTTN SH3; for Protein-protein interaction distance between Abp1 SH3-swapped baits, to CYK3: distance to Abp1 bait with CYK3 SH3; for Protein-protein interaction distance between Abp1 SH3-swapped baits, to DBNL: distance to Abp1 bait with DBNL SH3; for Protein-protein interaction distance between Abp1 SH3-swapped baits, to FUS1: distance to Abp1 bait with FUS1 SH3; for Protein-protein interaction distance between Abp1 SH3-swapped baits, to HCLS1: distance to Abp1 bait with HCLS1 SH3; for Protein-protein interaction distance between Abp1 SH3-swapped baits, to HOF1: distance to Abp1 bait with HOF1 SH3; for Protein-protein interaction distance between Abp1 SH3-swapped baits, to HSE1: distance to Abp1 bait with HSE1 SH3; for Protein-protein interaction distance between Abp1 SH3-swapped baits, to LSB1: distance to Abp1 bait with LSB1 SH3; for Protein-protein interaction distance between Abp1 SH3-swapped baits, to LSB3: distance to Abp1 bait with LSB3 SH3; for Protein-protein interaction distance between Abp1 SH3-swapped baits, to MYO3: distance to Abp1 bait with MYO3 SH3; for Protein-protein interaction distance between Abp1 SH3-swapped baits, to MYO5: distance to Abp1 bait with MYO5 SH3; for Protein-protein interaction distance between Abp1 SH3-swapped baits, to NBP2: distance to Abp1 bait with NBP2 SH3; for Protein-protein interaction distance between Abp1 SH3-swapped baits, to PEX13: distance to Abp1 bait with PEX13 SH3; for Protein-protein interaction distance between Abp1 SH3-swapped baits, to PIN3: distance to Abp1 bait with PIN3 SH3; for Protein-protein interaction distance between Abp1 SH3-swapped baits, to RVS167: distance to Abp1 bait with RVS167 SH3; for Protein-protein interaction distance between Abp1 SH3-swapped baits, to SDC25: distance to Abp1 bait with SDC25 SH3; for Protein-protein interaction distance between Abp1 SH3-swapped baits, to SHO1: distance to Abp1 bait with SHO1 SH3; for Protein-protein interaction distance between Abp1 SH3-swapped baits, to SLA1-1: distance to Abp1 bait with SLA1-1 SH3; for Protein-protein interaction distance between Abp1 SH3-swapped baits, to SLA1-2: distance to Abp1 bait with SLA1-2 SH3; for Protein-protein interaction distance between Abp1 SH3-swapped baits, to SLA1-3: distance to Abp1 bait with SLA1-3 SH3; for Protein-protein interaction distance between Abp1 SH3-swapped baits, to YSC84: distance to Abp1 bait with YSC84 SH3; for SH3-dependent PPIs gained by Abp1: DHFR-PCA
From the text: Having determined that multiple PPIs require SH3s, we asked whether the latter establish PPI specificity independently from their host proteins by swapping domains (Fig. 2A). Using the second round of genome editing, we individually replaced Abp1 SH3 with the 27 yeast SH3s and 3 human Abp1 orthologs’ SH3s (CTTN, HCLS1, and DBNL, Fig. 2B). The reintroduction of its own SH3 (Abp1SH3 in Abp1) reconstitutes almost perfectly Abp1’s interaction profile (Kendall’s τ = 0.93, Fig. 2B). […] No homologous SH3 domain fully re-establishes the normal Abp1 PPI profile (Fig. 2B and Supplementary Fig. 2C). However, we observe a significant correlation (cophenetic correlation = 0.20, p value = 0.005, Fig. 2C) between the similarity of PPI profiles (Fig. 2B) and the sequence similarity of the SH3s. […] Nonetheless, a subset of SH3-dependent PPIs is only observed with the endogenous domain. For instance, Hua2 and App1, both well-characterized partners of Abp1[14],[18],[19], are only detected when Abp1 contains its own SH3 (WT or swapped via editing). A given SH3 may therefore not be fully replaceable with other paralogous or orthologous domains. This pattern is confirmed by cellular growth phenotypic analyses (Supplementary Fig. 2D, E). PPIs, SH3 sequence similarity, and growth profiles under stress conditions are correlated (Supplementary Fig. 2D, E). This relationship is particularly clear when analyzing growth on media supplemented with hygromycin.
The stuffing of YSC84 SH3 rendered the strain sterile and was therefore not used for this study as the assays require crosses. For genes containing two SH3s (BZZ1 and BEM1), a combination of this first stuffer with a second one ([…]) coding for a highly similar linker ([…]) was used, which allowed targeting each SH3 position independently. The two N-terminal domains of SLA1, which are separated by six nucleotides, were stuffed by a single stuffer. Cells containing pCAS were selected via the G418 resistance cassette from the plasmid on YPD plates (YPD + NAT 100 μg/ml (DHFR F[1,2] selection) + G418 200 µg/mL (Bioshop Canada)). Colonies were randomly selected and grown in YPD media without G418 to allow plasmid loss. The correct insertion of the stuffer was validated by PCR and Sanger sequencing. The SH3-swapped, -shuffled, and -mutated strains were constructed following a second CRISPR–Cas9 editing step with the same procedures. The stuffer sequences were targeted by specific gRNAs (one gRNA per stuffer) and replaced by PCR amplified specific SH3 (with 40 bp homology arms) or libraries of mutated SH3 domains for Deep Mutational Scanning (DMS) with 78 bp flanking homology regions. Validation of the SH3 domain insertions was done as we previously described except for DMS libraries (see below).
The overall DHFR-PCA pipeline is based on Tarassov et al.[43] and the procedures have also been published as a visualized protocol. The screens were performed with robotically manipulated pin tools (BM5-SC1, S&P Robotics Inc.). First, the preys were cherry-picked from 96-well plates to omnitrays in a 384 format on YPD + HPH solid media. Plates were then combined into the 1536 format on YPD + HPH. The array was constituted of 575 preys previously shown to interact physically with at least one SH3-containing protein as reported in BioGRID V3.4.16 along with 40 negative controls. The prey array comprised a border of control strains of two rows and two columns corresponding to the PPI between LSM8-DHFR F[1,2] and CDC39-DHFR F[3]. This double border was used to remove border effects. Preys are present in duplicate at a randomized position in the 1536 array (except for YAL041W which is present four times per array). Baits were crossed with two prey plates, resulting in four independent bait–prey tests for each PPI. Baits were grown in liquid YPD + NAT and then transferred on solid YPD + NAT omnitrays. They were then replicated on YPD + NAT omnitrays in 1536 array format. […]

[1] = number of PPIs, difference, Abp1 SH3-swapped with the listed SH3, Fig2D,S2F
[2] = number of PPIs, Abp1 SH3-swapped with the listed SH3, Fig2D,S2F
[3] = Fig2B, bait ABP1, label = prey, Replicates 4

Substance | Protein-protein interaction distance between Abp1 SH3-swapped baits, to ABP1 | Protein-protein interaction distance between Abp1 SH3-swapped baits, to BBC1 | Protein-protein interaction distance between Abp1 SH3-swapped baits, to BEM1-1 | Protein-protein interaction distance between Abp1 SH3-swapped baits, to BEM1-2 | Protein-protein interaction distance between Abp1 SH3-swapped baits, to BOI1 | Protein-protein interaction distance between Abp1 SH3-swapped baits, to BOI2 | Protein-protein interaction distance between Abp1 SH3-swapped baits, to BUD14 | Protein-protein interaction distance between Abp1 SH3-swapped baits, to BZZ1-1 | Protein-protein interaction distance between Abp1 SH3-swapped baits, to BZZ1-2 | Protein-protein interaction distance between Abp1 SH3-swapped baits, to CDC25 | Protein-protein interaction distance between Abp1 SH3-swapped baits, to CTTN | Protein-protein interaction distance between Abp1 SH3-swapped baits, to CYK3 | Protein-protein interaction distance between Abp1 SH3-swapped baits, to DBNL | Protein-protein interaction distance between Abp1 SH3-swapped baits, to FUS1 | Protein-protein interaction distance between Abp1 SH3-swapped baits, to HCLS1 | Protein-protein interaction distance between Abp1 SH3-swapped baits, to HOF1 | Protein-protein interaction distance between Abp1 SH3-swapped baits, to HSE1 | Protein-protein interaction distance between Abp1 SH3-swapped baits, to LSB1 | Protein-protein interaction distance between Abp1 SH3-swapped baits, to LSB3 | Protein-protein interaction distance between Abp1 SH3-swapped baits, to MYO3 | also measured
CDC25 | 26.13 | 24.45 | 16.86 | 13.04 | 21 | 19.43 | 15.51 | 25.36 | 21.74 | 0.00 | 20.74 | 5.497 | 24.44 | 14.2 | 27.89 | 10.42 | 24.19 | 30.85 | 30.47 | 29.41 | Protein-protein interaction distance between Abp1 SH3-swapped baits, to MYO5: 28.8; Protein-protein interaction distance between Abp1 SH3-swapped baits, to NBP2: 15.13; Protein-protein interaction distance between Abp1 SH3-swapped baits, to PEX13: 29.16; Protein-protein interaction distance between Abp1 SH3-swapped baits, to PIN3: 28.09; Protein-protein interaction distance between Abp1 SH3-swapped baits, to RVS167: 27.4; Protein-protein interaction distance between Abp1 SH3-swapped baits, to SDC25: 14.8; Protein-protein interaction distance between Abp1 SH3-swapped baits, to SHO1: 24.02; Protein-protein interaction distance between Abp1 SH3-swapped baits, to SLA1-1: 7.329; Protein-protein interaction distance between Abp1 SH3-swapped baits, to SLA1-2: 13.18; Protein-protein interaction distance between Abp1 SH3-swapped baits, to SLA1-3: 30.95; Protein-protein interaction distance between Abp1 SH3-swapped baits, to YSC84: 30.76; SH3-dependent PPIs - SH3-dependent PPIs gained by Abp1 [1]: 3; SH3-dependent PPIs gained by Abp1 [2]: 0
RVS167 | 9.548 | 9.304 | 14.67 | 33.63 | 11.58 | 15.22 | 18.02 | 5.914 | 11.17 | 27.4 | 12.4 | 28.09 | 5.554 | 19.5 | 7.638 | 32.19 | 7.315 | 7.392 | 7.852 | 9.049 | Protein-protein interaction distance between Abp1 SH3-swapped baits, to MYO5: 7.689; Protein-protein interaction distance between Abp1 SH3-swapped baits, to NBP2: 17.22; Protein-protein interaction distance between Abp1 SH3-swapped baits, to PEX13: 4.587; Protein-protein interaction distance between Abp1 SH3-swapped baits, to PIN3: 5.294; Protein-protein interaction distance between Abp1 SH3-swapped baits, to RVS167: 0.00; Protein-protein interaction distance between Abp1 SH3-swapped baits, to SDC25: 34.37; Protein-protein interaction distance between Abp1 SH3-swapped baits, to SHO1: 6.815; Protein-protein interaction distance between Abp1 SH3-swapped baits, to SLA1-1: 30.09; Protein-protein interaction distance between Abp1 SH3-swapped baits, to SLA1-2: 19.9; Protein-protein interaction distance between Abp1 SH3-swapped baits, to SLA1-3: 7.698; Protein-protein interaction distance between Abp1 SH3-swapped baits, to YSC84: 8.283; PPIs gained by Abp1 - SH3-dependent PPIs gained by Abp1 [1]: 9; SH3-dependent PPIs - SH3-dependent PPIs gained by Abp1 [1]: 26; SH3-dependent PPIs gained by Abp1 [2]: 5
YAL005C |  |  |  |  |  |  |  |  |  |  |  |  |  |  |  |  |  |  |  |  | medrep (log2 median colony size normalized to plate background) [3]: 5.43; medsize (median colony size) [3]: 6098
